Reference: publication PMC2631652 (Current biology : CB, 2008)

Target: T1, ClC-3 (long-ClC-3A) (Homo sapiens, UniProt P51790)
T1 sequence (P51790 1-818): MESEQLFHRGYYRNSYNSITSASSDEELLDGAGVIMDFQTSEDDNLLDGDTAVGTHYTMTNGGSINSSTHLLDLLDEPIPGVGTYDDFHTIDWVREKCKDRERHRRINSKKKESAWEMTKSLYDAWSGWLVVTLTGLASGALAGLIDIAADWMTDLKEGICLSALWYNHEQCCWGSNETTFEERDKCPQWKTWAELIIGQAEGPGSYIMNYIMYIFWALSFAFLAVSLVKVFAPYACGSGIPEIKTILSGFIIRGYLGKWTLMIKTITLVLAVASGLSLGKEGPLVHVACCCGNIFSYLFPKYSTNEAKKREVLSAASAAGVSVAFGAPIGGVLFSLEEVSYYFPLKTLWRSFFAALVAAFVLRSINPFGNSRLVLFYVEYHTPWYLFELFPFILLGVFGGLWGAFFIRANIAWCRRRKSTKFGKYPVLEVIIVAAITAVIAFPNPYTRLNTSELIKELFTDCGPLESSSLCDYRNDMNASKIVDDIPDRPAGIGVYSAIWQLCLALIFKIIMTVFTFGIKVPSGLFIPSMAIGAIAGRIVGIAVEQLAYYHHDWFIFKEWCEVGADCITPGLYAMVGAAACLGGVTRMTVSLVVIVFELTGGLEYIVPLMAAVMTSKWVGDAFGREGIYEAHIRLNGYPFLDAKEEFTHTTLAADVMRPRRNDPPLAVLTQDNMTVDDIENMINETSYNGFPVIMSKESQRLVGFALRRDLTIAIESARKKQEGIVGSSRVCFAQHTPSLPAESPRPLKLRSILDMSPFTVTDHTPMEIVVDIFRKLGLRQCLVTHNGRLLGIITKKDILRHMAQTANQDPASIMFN
Assay: whole-cell patch clamp, inhibitor in pipette
Format: cell-based

- IC50: 4.6 µM
SMILES: O=P(O)(O)O[C@H]1[C@H](OP(=O)(O)O)[C@@H](OP(=O)(O)O)[C@@H](O)[C@@H](O)[C@@H]1OP(=O)(O)O [Ins(3,4,5,6)P4]
